Read-outs that look alike come from different tables or passages of the source.
Tests used:
p70S6K = p70S6K (Homo sapiens, UniProt P23443); assay: Luciferase-coupled chemiluminescence kinase assay (ATP consumption); assay type: biochemical
Procedure, shortened: (§1)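 Activity is read as ATP depletion: luciferase-luciferin reagent added after a 3 h ambient-temperature kinase reaction, with total ATP use limited to 25-60%. Before ATP addition, 2.5-5 nM kinase and compound were preincubated 30 min in Tris pH 7.5/MgCl2/TX-100/DTT buffer; […].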

AktK = AktK (Homo sapiens, UniProt P31749); assay: as above; assay type: biochemical; conditions: read-out: AKT-1 IC50
Chain of AktK (P31749 whole entry): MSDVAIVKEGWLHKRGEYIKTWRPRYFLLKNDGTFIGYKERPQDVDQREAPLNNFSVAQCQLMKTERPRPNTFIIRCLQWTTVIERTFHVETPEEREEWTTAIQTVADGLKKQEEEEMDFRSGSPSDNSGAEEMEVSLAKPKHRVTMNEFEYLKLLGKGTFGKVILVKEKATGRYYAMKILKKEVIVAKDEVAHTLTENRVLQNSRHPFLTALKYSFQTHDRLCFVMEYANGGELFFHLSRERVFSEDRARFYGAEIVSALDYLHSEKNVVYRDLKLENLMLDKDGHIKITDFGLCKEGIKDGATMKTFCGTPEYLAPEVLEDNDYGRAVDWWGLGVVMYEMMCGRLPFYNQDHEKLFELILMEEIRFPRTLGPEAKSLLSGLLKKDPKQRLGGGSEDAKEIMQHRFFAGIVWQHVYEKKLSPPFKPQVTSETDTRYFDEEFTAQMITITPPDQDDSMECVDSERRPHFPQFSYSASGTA
Procedure, shortened: as §1

Chain of p70S6K (P23443 whole entry): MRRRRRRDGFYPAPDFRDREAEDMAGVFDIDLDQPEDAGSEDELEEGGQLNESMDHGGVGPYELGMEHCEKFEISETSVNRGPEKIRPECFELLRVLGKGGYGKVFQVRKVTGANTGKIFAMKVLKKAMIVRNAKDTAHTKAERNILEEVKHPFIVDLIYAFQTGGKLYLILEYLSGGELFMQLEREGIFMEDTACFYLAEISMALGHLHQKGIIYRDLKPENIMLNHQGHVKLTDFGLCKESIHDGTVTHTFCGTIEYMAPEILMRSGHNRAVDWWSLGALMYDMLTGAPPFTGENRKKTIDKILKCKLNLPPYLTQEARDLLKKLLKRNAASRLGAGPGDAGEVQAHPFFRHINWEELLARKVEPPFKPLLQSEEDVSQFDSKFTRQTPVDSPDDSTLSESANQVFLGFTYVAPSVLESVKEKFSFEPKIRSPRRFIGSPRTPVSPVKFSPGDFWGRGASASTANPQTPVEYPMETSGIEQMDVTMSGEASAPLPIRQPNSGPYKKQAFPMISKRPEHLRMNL

| Compound | IC50 (p70S6K; Table 1, class symbols per key) [nM] | IC50 (AktK; Table 1, class symbols per key) [nM] | IC50 (p70S6K) [nM] | IC50 (AktK) [nM] |
| --- | --- | --- | --- | --- |
| COc1ccc(N2CCN(c3ncnc4[nH]nc(Br)c34)CC2)c(OC)c1 [Entry 106, 4-{4-[2,4-bis(methyloxy)phenyl]piperazin-1-yl}-3-bromo-1H-pyrazolo[3,4-d]pyrimidine] | 100 to 1000 | ≥ 10000 | – | – |
| Cc1c(NCCN2CCCC2)cc(C(=O)Nc2cccnc2)cc1N1CCN(c2ncnc3[nH]nc(Br)c23)CC1 [Entry 215, [4-(3-bromo-1H-pyrazolo[3,4-d]pyrimidin-4-yl)piperazin-1-yl]-4-methyl-N-pyridin-3-yl-5-[(2-pyrrolidin-1-ylethyl)amino]benzamide] | < 100 | < 100 | – | – |
| Cc1cc(F)c(-c2ccc(F)c(F)c2)cc1N1CCN(c2ncnc3[nH]nc(Br)c23)CC1 [Entry 266, 3-bromo-4-[4-(3′,4′,6-trifluoro-4-methylbiphenyl-3-yl)piperazin-1-yl]-1H-pyrazolo[3,4-d]pyrimidine] | < 100 | 100 to 1000 | – | – |
| Cc1c(OCCC2CCN(C)CC2)cc(Cl)cc1N1CCN(c2ncnc3[nH]nc(Br)c23)CC1 [Entry 89, 3-bromo-4-[4-(5-chloro-2-methyl-3-{[2-(1-methyl-piperidin-4-yl)ethyl]oxy}phenyl)piperazin-1-yl]-1H-pyrazolo[3,4-d]pyrimidine] | < 100 | < 100 | – | – |
| CCOc1ccc(N2CCN(c3ncnc4[nH]nc(Br)c34)CC2)cc1 [Entry 104, 3-bromo-4-{4-[4-(ethyloxy)phenyl]piperazin-1-yl}-1H-pyrazolo[3,4-d]pyrimidine] | 100 to 1000 | ≥ 10000 | – | – |
| Cc1ccc(-c2ccccc2OCCN2CCOCC2)cc1N1CCN(c2ncnc3[nH]nc(Br)c23)CC1 [Entry 279, 3-bromo-4-(4-{4-methyl-2′-[(2-morpholin-4-ylethyl)oxy]biphenyl-3-yl}piperazin-1-yl)-1H-pyrazolo[3,4-d]pyrimidine] | < 100 | < 100 | – | – |
| COc1cccc(N2CCN(c3ncnc4[nH]ccc34)CC2)c1 [Entry 303, 4-{4-[3-(methyloxy)phenyl]piperazin-1-yl}-7H-pyrrolo[2,3-d]pyrimidine] | – | – | 100 to 1000 | ≥ 10000 |
| Cc1c(NCCN2CCCC2)cc(OCC2CC2(F)F)cc1N1CCN(c2ncnc3[nH]nc(Br)c23)CC1 (centres unmarked) [Entry 270, 3-[4-(3-bromo-1H-pyrazolo[3,4-d]pyrimidin-4-yl)piperazin-1-yl]-5-{[(2,2-difluorocyclopro-pyl)methyl]oxy}-2-methyl-N-(2-pyrrolidin-1-ylethyl)aniline] | < 100 | < 100 | – | – |
| CCCc1n[nH]c2ncnc(N3CCN(c4cc(Cl)ccc4C)CC3)c12 [Entry 330, 4-[4-(5-chloro-2-methylphenyl)piperazin-1-yl]-3-propyl-1H-pyrazolo[3,4-d]pyrimidine] | – | – | < 100 | 1000 to 10000 |
| Cc1ccc(Cl)cc1N1CCN(c2ncnc3[nH]nc(N4CCN(C)CC4)c23)CC1 [Entry 391, 4-[4-(5-chloro-2-methylphenyl)piperazin-1-yl]-3-(4-methylpiperazin-1-yl)-1H-pyrazolo[3,4-d]pyrimidine] | – | – | 1000 to 10000 | 1000 to 10000 |
| Cc1n[nH]c2ncnc(N3CCN(c4cccc(Cl)c4)CC3)c12 [Entry 318, 4-[4-(3-chlorophenyl)piperazin-1-yl]-3-methyl-1H-pyrazolo[3,4-d]pyrimidine] | – | – | < 100 | ≥ 10000 |
| CC(=O)c1ccc(N2CCN(c3ncnc4[nH]nc(Br)c34)CC2)cc1 [Entry 94, 1-{4-[4-(3-bromo-1H-pyrazolo[3,4-d]pyrimidin-4-yl)piperazin-1-yl]phenyl}ethanone] | 100 to 1000 | 1000 to 10000 | – | – |
| Clc1ccc(Cl)c(N2CCN(c3ncnc4[nH]nc(Br)c34)CC2)c1 [Entry 95, 3-bromo-4-[4-(2,5-dichlorophenyl)piperazin-1-yl]-1H-pyrazolo[3,4-d]pyrimidine] | < 100 | ≥ 10000 | – | – |
| Cc1ccc(C(=O)Nc2ccccc2)cc1N1CCN(c2ncnc3[nH]nc(Br)c23)CC1=O [Entry 199, 3-[4-(3-bromo-1H-pyrazolo[3,4-d]pyrimidin-4-yl)-2-oxopiperazin-1-yl]-4-methyl-N-phenylbenzamide] | < 100 | 1000 to 10000 | – | – |
| Cc1c(CCCN2CCN(C)CC2)cc(Cl)cc1N1CCN(c2ncnc3[nH]nc(C(F)(F)F)c23)CC1 [Entry 92, 4-(4-{5-chloro-2-methyl-3-[3-(4-methylpiperazin-1-yl)propyl]phenyl}piperazin-1-yl)-3-(trifluoro-methyl)-1H-pyrazolo[3,4-d]pyrimidine] | < 100 | 100 to 1000 | – | – |
| Clc1ccccc1N1CCN(c2ncnc3[nH]ccc23)CC1 [Entry 311, 4-[4-(2-chlorophenyl)piperazin-1-yl]-7H-pyrrolo[2,3-d]pyrimidine] | – | – | 100 to 1000 | ≥ 10000 |
| Clc1cccc(N2CCN(c3ncnc4[nH]ncc34)CC2)c1 [Entry 298, 4-[4-(3-chlorophenyl)piperazin-1-yl]-1H-pyrazolo[3,4-d]pyrimidine] | – | – | 100 to 1000 | ≥ 10000 |
| Cc1c(NCCN2CCCC2)cc(CC[Si](C)(C)C)cc1N1CCN(c2ncnc3[nH]nc(Br)c23)CC1 [Entry 246, 3-[4-(3-bromo-1H-pyrazolo[3,4-d]pyrimidin-4-yl)piperazin-1-yl]-2-methyl-N-(2-pyrrolidin-1-ylethyl)-5-[2-(trimethylsilyl)ethyl]aniline] | < 100 | < 100 | – | – |
| Clc1cccc(N2CCN(c3ncnc4[nH]nc(Br)c34)CC2)c1 [Entry 134, 3-bromo-4-[4-(3-chlorophenyl)piperazin-1-yl]-1H-pyrazolo[3,4-d]pyrimidine] | < 100 | ≥ 10000 | – | – |
| CCN(CC)CCCOc1nc(Cl)nc(N2CCN(c3ncnc4[nH]nc(Br)c34)CC2)c1C [Entry 149, 3-({6-[4-(3-bromo-1H-pyrazolo[3,4-d]pyrimidin-4-yl)piperazin-1-yl]-2-chloro-5-methylpyrimidin-4-yl}oxy)-N,N-diethylpropan-1-amine] | 100 to 1000 | 1000 to 10000 | – | – |
| 3-[4-(3-bromo-1H-pyrazolo[3,4-d]pyrimidin-4-yl)piperazin-1-yl]-5-(butyloxy)-2-methyl-N-(2-pyrrolidin-1-ylethyl)aniline [Entry 208] | < 100 | < 100 | – | – |
| Cc1c(CCCN2CCOCC2)cc(Cl)cc1N1CCN(c2ncnc3[nH]nc(Br)c23)CC1 [Entry 18, 3-bromo-4-{4-[5-chloro-2-methyl-3-(3-morpholin-4-ylpropyl)phenyl]piperazin-1-yl}-1H-pyrazolo[3,4-d]pyrimidine] | < 100 | 100 to 1000 | – | – |
| Cc1cccc(N2CCN(c3ncnc4[nH]nc(Br)c34)CC2C)c1 (centres unmarked) [Entry 158, 3-bromo-4-[3-methyl-4-(3-methylphenyl)piperazin-1-yl]-1H-pyrazolo[3,4-d]pyrimidine] | < 100 | 1000 to 10000 | – | – |
| Clc1ccc(N2CCN(c3ncnc4[nH]nc(Br)c34)CC2)c(Cl)c1 [Entry 77, 3-bromo-4-[4-(2,4-dichlorophenyl)piperazin-1-yl]-1H-pyrazolo[3,4-d]pyrimidine] | 100 to 1000 | ≥ 10000 | – | – |
| Cc1ccc(Cl)cc1N1CCN(c2ncnc3[nH]nc(C#CCN4CCN(C)CC4)c23)CC1 [Entry 398, 4-[4-(5-chloro-2-methylphenyl)piperazin-1-yl]-3-[3-(4-methylpiperazin-1-yl)prop-1-yn-1-yl]-1H-pyrazolo[3,4-d]pyrimidine] | – | – | 100 to 1000 | 1000 to 10000 |

Reference: patent publication US8076338B2, “Kinase modulators and methods of use” (Exelixis, Inc., priority 2004, dated 2011)
